In US4880007A, “Contrast agent for NMR scanning” (Amersham International PLC, priority 1985, dated 1989):
Values belong to the molecule of their own block, whether it stands above or below them.

How the values were obtained:
[1] = Binding of chromium complexes to hydroxy apatite, by T1 relaxation measurement; conditions: 0.4 ml of 50 mM metal complex; HAP 250 mg/ml
Description: (§1) 1 ml of hydroxy apatite solution 250 mg/ml in water was used for all the binding assays to described.
The procedure above was followed but this time 0.4 ml of 50 mM metal complex solution was added and the solid resuspended. The supernatant was analysed by T1 using T1 relaxation measurements and the amount bound to hydroxy apatite calculated.

[2] = Binding of ligands to hydroxy apatite, ^31 P NMR study
Description: as §1
The solid from 1 ml of hydroxy apatite solution was isolated by centrifugation and the supernatant removed. 0.41 ml of a 0.1M solution of ligand at pH 7.5±0.1 were than added and the solid resuspended. The solid was once more spun down and the supernatant analysed by ^31 P NMR. This enabled the amount of bound phosphonate to be analysed.

[3] = ^153 Gd biodistribution, IV study in rats; format: in vivo, male rats; conditions: for Bladder & Urine / Blood / Bone / Carcass / Injection Site / Kidneys / Liver & Spleen / Lung / Muscle / Ratio Bone/Blood / Ratio Bone/Liver & Spleen / Ratio Bone/Muscle / Stomach & Gut / usefulness as bone scanning / bone-seeking agent: rat, IV, two hours post injection; for effect of added Ca^2+ or dimethylglucamine on bone uptake: Ca^2+ and dimethylglucamine added separately to aqueous solutions
Text: This example uses ^153 Gd to compare the biodistribution properties of various complexes in rats.
Using ^153 Gd, a comparison was made of certain properties of aqueous "solutions" of
The biodistribution data there reported were obtained by means of an IV study in male rats which were sacrified two hours post injection. % activity per organ is given, together with ratios of bone to organ.
It is known that Ca^2+ can bind to di- and poly-phosphonates, and that this is one reason why these materials are toxic. It is also known that dimethylglucamine can be used to solubilize complexes of this kind.

[4] = Solubility / precipitation of Gd complexes; format: physicochemical
Description: Equal volumes of 1 mM methylene diphosphonic acid and 0.5 mM Gd^3+ were used to prepare a complex designated Gd.MDP.
Equal volumes of 10 mM ethane-1-hydroxy-1,1-diphosphonic acid and 5 mM Gd^3+ were used to prepare a complex designated Gd.EHDP.

[5] = ligand 0.1M, 0.41 ml, pH 7.5±0.1, HAP 250 mg/ml, ^31 P NMR

% Bound [1]: 96%
SMILES: O=P(O)(O)CN(Cc1cccc(CN(CP(=O)(O)O)CP(=O)(O)O)c1)CP(=O)(O)O.[Cr] [CrMXDTMP]

% Bound to HAP [2, 5]: 84.1%
SMILES: O=P(O)(O)CN(Cc1cccc(CN(CP(=O)(O)O)CP(=O)(O)O)c1)CP(=O)(O)O [MXDTMP, Meta-xylene diamine tetramethylene phosphonate]

SMILES: [153Gd+3].[Cl-].[Cl-].[Cl-] [^153 Gd.Cl3]
Bladder & Urine [3]: 12.5 % activity per organ
Blood [3]: 3.7 % activity per organ
Bone [3]: 38.6 % activity per organ
Carcass [3]: 1.8 % activity per organ
Injection Site [3]: 3.4 % activity per organ
Kidneys [3]: 2.5 % activity per organ
Liver & Spleen [3]: 32.5 % activity per organ
Lung [3]: 0.6 % activity per organ
Muscle [3]: 4.0 % activity per organ
Ratio Bone/Blood [3]: 12.2
Ratio Bone/Liver & Spleen [3]: 1.1
Ratio Bone/Muscle [3]: 83
Stomach & Gut [3]: 3.9 % activity per organ

SMILES: O=C(O)CCCN(CP(=O)(O)O)CP(=O)(O)O.O=C(O)CCCN(CP(=O)(O)O)CP(=O)(O)O.[Cr] [Cr(GABADMP)2]
% Bound [1]: 90%

SMILES: O=P(O)(O)CN(CCO)CP(=O)(O)O.O=P(O)(O)CN(CCO)CP(=O)(O)O.[Cr] [Cr(AEDMP)2]
% Bound [1]: 96%

SMILES: O=C(O)CCCCCN(CP(=O)(O)O)CP(=O)(O)O [AHADMP, 6-amino hexanoic acid dimethylene phosphonate]
% Bound to HAP [2, 5]: 89.7%

SMILES: CC(O)(P(=O)(O)O)P(=O)(O)O.[Gd] [Gd.EHDP]
pH needed to avoid precipitation ([4]; equal volumes 10 mM ligand and 5 mM Gd^3+): above 7
effect of added Ca^2+ or dimethylglucamine on bone uptake [3]: neither addition had a significant effect
Bladder & Urine [3]: 24.0 % activity per organ
Blood [3]: 21.45 % activity per organ
Bone [3]: 22.64 % activity per organ
Carcass [3]: 0.01 % activity per organ
Injection Site [3]: 2.91 % activity per organ
Kidneys [3]: 1.05 % activity per organ
Liver & Spleen [3]: 11.29 % activity per organ
Lung [3]: 1.55 % activity per organ
Muscle [3]: 13.8 % activity per organ
Ratio Bone/Blood [3]: 1.24
Ratio Bone/Liver & Spleen [3]: 2.04
Ratio Bone/Muscle [3]: 14.07
Stomach & Gut [3]: 4.21 % activity per organ
usefulness as bone scanning / bone-seeking agent [3]: not useful as bone scanning agents

SMILES: O=C(O)CCCN(CP(=O)(O)O)CP(=O)(O)O [GABADMP, Gamma amino butyric acid dimethylene phosphonate]
% Bound to HAP [2, 5]: 77.8%

SMILES: O=P(O)(O)CP(=O)(O)O.[Gd] [Gd.MDP]
solubility ([4]; around physiological pH's): poor solubility properties
Bladder & Urine [3]: 1.0 % activity per organ
Blood [3]: 0.1 % activity per organ
Bone [3]: 3.1 % activity per organ
Carcass [3]: 0.7 % activity per organ
Injection Site [3]: 0.5 % activity per organ
Kidneys [3]: 0.3 % activity per organ
Liver & Spleen [3]: 93.9 % activity per organ
Lung [3]: 0.4 % activity per organ
Muscle [3]: 0.3 % activity per organ
Ratio Bone/Blood [3]: 33.2
Ratio Bone/Liver & Spleen [3]: 0.0
Ratio Bone/Muscle [3]: 80
Stomach & Gut [3]: 0.0 % activity per organ
usefulness as bone scanning / bone-seeking agent [3]: not useful as bone scanning agents

SMILES: O=P(O)(O)CN(CCN(CP(=O)(O)O)CP(=O)(O)O)CP(=O)(O)O.[Gd] [Gd.EDTMP]
effect of added Ca^2+ or dimethylglucamine on bone uptake [3]: neither addition had a significant effect
Bladder & Urine [3]: 45.8 % activity per organ
Blood [3]: 0.6 % activity per organ
Bone [3]: 45.2 % activity per organ
Carcass [3]: 3.5 % activity per organ
Injection Site [3]: 2.1 % activity per organ
Kidneys [3]: 0.4 % activity per organ
Liver & Spleen [3]: 1.4 % activity per organ
Lung [3]: 0.1 % activity per organ
Muscle [3]: 1.1 % activity per organ
Ratio Bone/Blood [3]: 173.0
Ratio Bone/Liver & Spleen [3]: 35.2
Ratio Bone/Muscle [3]: 491.2
Stomach & Gut [3]: 1.9 % activity per organ
usefulness as bone scanning / bone-seeking agent [3]: good bone-seeking agent

SMILES: O=C(O)CN(CP(=O)(O)O)CP(=O)(O)O [GDMP, Glycine dimethylene phosphonate]
% Bound to HAP ([2]; pH 7.5): 88.2%

% Bound to HAP [2, 5]: 88.0%
SMILES: O=P(O)(O)CN(Cc1ccc(CN(CP(=O)(O)O)CP(=O)(O)O)cc1)CP(=O)(O)O [PXDTMP, Para-xylene diamine tetramethylene phosphonate]

SMILES: O=P(O)(O)CN(CCO)CP(=O)(O)O [AEDMP, Amino ethanol dimethylene phosphonate]
% Bound to HAP [2, 5]: 50.9%

SMILES: O=C(O)CCCCCN(CP(=O)(O)O)CP(=O)(O)O.O=C(O)CCCCCN(CP(=O)(O)O)CP(=O)(O)O.[Cr] [Cr(AHADMP)2]
% Bound [1]: 96%

SMILES: O=C(O)CN(CP(=O)(O)O)CP(=O)(O)O.O=C(O)CN(CP(=O)(O)O)CP(=O)(O)O.[Cr] [Cr(GDMP)2]
% Bound [1]: 80%
